Experiments:
Type in all cases: in vivo, rat
[1] = test system: tyrosine hydroxylase (TH); assay: Example 3: TH immunostaining density and TH positive neuron number in SNc after 6-OHDA lesion
Experimental: A paired experimental design was used and the experimenter was blinded to the treatment groups. Eighteen male Wistar rats (50-60 days old, 280-310 g) were used for this study. 6-hydroxy dopamine (6-OHDA) was prepared as 8 μg in a base of 2 μl 0.9% saline containing 1% ascorbic acid. It was administered into the right medial forebrain bundle (MFB) using coordinates of AP+4.7 mm, R 1.6 mm, V−8 mm under anaesthesia of 3% halothane. 6-OHDA was injected into the right MFB using a Hamilton syringe (100 μl with a 30G needle) controlled by a microdialysis infusion pump at an infusion rate of 0.2 μl/minute. The infusion needle was then slowly withdrawn 5 minutes after the infusion. […] Briefly, a guide cannula (21G, 6 mm) was fixed on the top of the dura with coordinates of AP+7.5 mm, R 1.5 mm immediately after the injection of 6-OHDA. Either GPE (3 μg/15 μl) or its vehicle were infused into the right lateral ventricle 2 hours later at an infusion rate of 2 μl/minute. Rats were then housed in a holding room with food and water ad libitum for the next 2 weeks.
The rats were then deeply anaesthetized with an overdose of pentobarbital and transcardially perfused with normal saline followed by 10% buffered formalin. The brains were removed from the skull and kept in the same fixative for the next 48 hours. A standard paraffin tissue preparation was used to process the tissue so that it could be used for immunohistochemistry. Coronal sections (8 μm) were cut using a microtome, and the sections were mounted on chrome alum coated microscopy slides and air-dried. SNc sections used for immunohistochemical staining were deparaffinized, rehydrated and washed in PBS (0.1M). The sections were then pretreated with 1% H2O2 for 20 minutes, washed with 0.1M PBS (3×5 minutes) and incubated with rabbit polyclonal antisera raised against tyrosine hydroxylase (Protos Biotech, USA) diluted 1:500 with 1% goat serum for 48 hours at 4° C. The sections were washed in PBS (3×5 minutes) and incubated with donkey anti-rabbit biotinylated secondary antibody (1:200, Amersham, Life Science) overnight at room temperature. The sections were washed, incubated in streptavidin-biotinylated horseradish peroxidase (1:200, Amersham, Life Science) for 3 hours, washed again in PBS and then reacted in 0.05% 3,3-diaminobenzidine tetrahydrochloride (DAB) and 0.01% H2O2 to produce a brown reaction product. The sections were dehydrated in a graded alcohol series, cleared in xylene and coverslipped with mounting medium.
The average density from the background was also measured. The analyst was blinded to the treatment and control groups. The difference in average density between the background and TH immunostaining was calculated and used for data analysis. […]

[2] = test system: tyrosine hydroxylase (TH); assay: Example 1: TH immunopositive neuron count in SNc after 6-OHDA lesion, GPE given 2 hours later; conditions: lesioned (right) side; 3 μg GPE via guide cannula 2 hours after 6-OHDA; 14 days; 3 levels of SNc; vs vehicle; FIG. 1
Experimental: This experiment was blind with respect to the treatment (with GPE or the vehicle) and with respect to the counting of neurons expressing TH (between sections from animals treated with GPE or vehicle).
(§1) The objective of this experiment was to determine the effects of administering GPE on the expression of tyrosine hydroxylase (TH) in the presence or absence of CNS injury. […] Specifically, 9 pairs of adult male Wistar rats (280-320 g) were prepared under 3% halothane/O2 anaesthesia. The oxygen free radical producing neurotoxin 6-hydroxydopamine (6-OHDA) which produces degeneration of dopamine neurones (8 μg/2 μl) was injected into the median forebrain bundle using a 30 gauge needle (coordinates: anterior-posterior +4.7 mm, right +1.6 mm, vertical −8.5 mm). A guide cannula was placed on the dura 7.5 mm anterior from stereotaxic zero and 1.5 mm from the midline on the right. The rats were left to recover at room temperature. 2 hours after the administration of 6-OHDA the rats were treated, via the guide cannula, with 3μg GPE or vehicle alone (15μl injected with a pump rate of 2 μl/minute, 0.1M acetate buffer [pH6], diluted 10 times in 0.1 bovine serum albumin in 0.1M phosphate buffered saline [PBS][pH7.31]). […]
(§2) The total counts of neurons were compared between the GPE and the vehicle treated group. Data were analysed with paired t-test and presented as mean±sem.

[3] = test system: tyrosine hydroxylase (TH); assay: Example 2: TH immunopositive neuron count in SNc after 6-OHDA lesion, second set of rats; conditions: 3 μg GPE 2 hours after 6-OHDA; 2 levels of SNc counted; vs vehicle; FIG. 2
Experimental: as §1, §2
Example 2 was performed using a second set of rats (9 pairs), using the same experimental parameters except that only the immunopositive neurons at 2 levels of the SNc were counted.

[4] = test system: tyrosine hydroxylase (TH); assay: Example 4: survival of TH immunopositive nigral neurons after medial forebrain bundle transection; conditions: lesioned side; daily supranigral GPE 0.3 μg/μl, 1 μl, for two weeks after MFB transection; ipsilateral/contralateral; FIG. 5
Experimental: Adult male Wistar rats (200-220 g) were anaesthetized with 75 mg/kg Nembutal and positioned in a stereotaxic apparatus. Unilateral transection of the medial forebrain bundle which contains the ascending nigral dopaminergic projection fibers was made 1.3 mm rostral to the rostral tip of the SNc using a retractable wire knife (David Kopf Instruments, Tujunga, Calif.). The knife was lowered into the brain using the following coordinates from the atlas of Paxinos and Watson (1986), Sydney: Academic Press: 3.3 mm posterior to Bregma, 2.4 mm lateral from midline, and 8.5 mm ventral from skull, the blade was extended 2.0 mm toward midline, raised 2.5 mm dorsally, retracted and extended again, and then returned 2.5 mm ventrally. The wire blade was retracted and the knife withdrawn. Next, a 22-gauge metal guide cannula was permanently fixed into place supranigrally at 5.0 mm posterior to Bregma, 2.0 mm lateral to midline, and 6.8 mm ventral to skull. […]
Immunopositive cells were counted in the central SNc Counts were made ventral and lateral to the lemniscus medialis, including both the pars compacta and pars reticulata, but excluding the ventral tegmental area in the ventromedial midbrain and the retrorubral field in the caudolateral midbrain. […] To reveal percent survival, percent changes were calculated by dividing the ipsilateral value by contralateral value.

For Gly-Pro-Glu [GPE], the “loss of TH immunopositive neurons in the SNc” value ([1]; compared to the control group, 6-OHDA lesion) was “prevented the loss”, the “density of TH immunostaining in cytoplasm and processes of neurons” value ([1]; ipsilateral SNc, GPE intraventricularly 2 hours after 6-OHDA, FIG. 4) was “restored” and the “neuronal survival (TH immunopositive neurons, R/L ratio)” value ([1]; most caudal level of SNc, GPE 3 μg/15 μl into right lateral ventricle 2 hours after 6-OHDA, 2 weeks, mean±SEM) was 60±13.0%. For the same substance, the “restoration in TH immunoreactivity (density of TH immunostaining, R/L ratio)” value ([1]; most caudal level of SNc, GPE 3 μg/15 μl into right lateral ventricle 2 hours after 6-OHDA, 2 weeks, mean±SEM, FIG. 3) was 99.6±27%, the “number of TH immunopositive dopaminergic neurons” value [2] was “increased” and the “TH expression (number of TH immunopositive neurons)” value [3] was “upregulation of TH expression”. The “percent cell survival of TH immunopositive neurons” value [4] was “increased”.

Reference: patent publication US6933282B2, “Regulation of tyrosine hydroxylase by GPE” (Neuren Pharmaceuticals Ltd., priority 1998, dated 2005)
